Data published in ChEMBL document CHEMBL5214927, “Recent advance on carbamate-based cholinesterase inhibitors as potential multifunctional agents against Alzheimer's disease” (Eur J Med Chem, 2022).

Assays:
[1] = target: T1, Cholinesterase (Homo sapiens, UniProt P06276); assay: Inhibition of recombinant human serum BChE using butyrylthiocholine iodide as substrate preincubated for 20 mins followed by substrate addition measured after 5 mins by Ellman's method
[2] = target: T2, Acetylcholinesterase (Homo sapiens, UniProt P22303); assay: Inhibition of recombinant human serum AChE using acetylthiocholine iodide as substrate preincubated for 20 mins followed by substrate addition measured after 5 mins by Ellman's method
[3] = target: T3, Cholinesterases; ACHE & BCHE (Homo sapiens) (UniProt P06276+P22303); assay: Selectivity index, ratio of IC50 for recombinant human serum BChE to IC50 for recombinant human serum AChE; assay type: protein assay
[4] = target: T4, Acetylcholinesterase (Rattus norvegicus, UniProt P37136); assay: Inhibition of Sprague-Dawley rat cortex AChE using acetylthiocholine iodide as substrate incubated for 15 mins in presence of iso-OMPA inhibitor by Ellman's method
T4 sequence (P37136 whole entry): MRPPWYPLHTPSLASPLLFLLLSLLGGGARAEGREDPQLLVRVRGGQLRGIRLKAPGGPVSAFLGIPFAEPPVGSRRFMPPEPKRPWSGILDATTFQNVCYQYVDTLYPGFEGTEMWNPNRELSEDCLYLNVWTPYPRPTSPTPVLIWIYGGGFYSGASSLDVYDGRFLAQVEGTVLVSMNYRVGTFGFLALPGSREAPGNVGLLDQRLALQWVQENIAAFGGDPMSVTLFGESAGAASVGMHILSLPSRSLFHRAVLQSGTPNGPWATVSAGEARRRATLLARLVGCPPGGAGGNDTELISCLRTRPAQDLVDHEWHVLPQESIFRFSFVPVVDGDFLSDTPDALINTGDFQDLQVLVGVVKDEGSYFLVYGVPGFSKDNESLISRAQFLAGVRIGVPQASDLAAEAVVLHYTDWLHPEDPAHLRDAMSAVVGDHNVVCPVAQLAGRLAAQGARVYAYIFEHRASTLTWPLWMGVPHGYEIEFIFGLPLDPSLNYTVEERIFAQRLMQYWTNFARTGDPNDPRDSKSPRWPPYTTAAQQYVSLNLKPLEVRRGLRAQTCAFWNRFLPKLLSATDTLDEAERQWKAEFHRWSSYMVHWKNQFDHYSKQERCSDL

[5] = target: T1, Cholinesterase; assay: Inhibition of BChE (unknown origin)
[6] = target: T2, Acetylcholinesterase; assay: Inhibition of human AChE
[7] = target: T1, Cholinesterase; assay: Inhibition of human BChE
[8] = target: T5, Amine oxidase [flavin-containing] A (Homo sapiens, UniProt P21397); assay: Inhibition of MAO-A (unknown origin)
T5 sequence (P21397 whole entry): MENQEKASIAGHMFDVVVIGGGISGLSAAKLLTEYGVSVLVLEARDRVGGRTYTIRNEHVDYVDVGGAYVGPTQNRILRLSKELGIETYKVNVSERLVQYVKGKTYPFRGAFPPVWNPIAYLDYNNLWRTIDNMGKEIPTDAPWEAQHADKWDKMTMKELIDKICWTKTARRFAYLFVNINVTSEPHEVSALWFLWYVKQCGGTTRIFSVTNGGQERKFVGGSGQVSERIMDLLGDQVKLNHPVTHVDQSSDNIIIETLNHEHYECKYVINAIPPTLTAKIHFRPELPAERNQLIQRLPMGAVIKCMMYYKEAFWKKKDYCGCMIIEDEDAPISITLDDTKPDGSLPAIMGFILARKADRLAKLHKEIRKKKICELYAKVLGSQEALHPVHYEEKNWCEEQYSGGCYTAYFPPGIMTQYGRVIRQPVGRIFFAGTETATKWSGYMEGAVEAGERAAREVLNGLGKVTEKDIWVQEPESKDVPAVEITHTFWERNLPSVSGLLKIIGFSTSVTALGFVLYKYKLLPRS

[9] = target: T6, Amine oxidase [flavin-containing] B (Homo sapiens, UniProt P27338); assay: Inhibition of MAO-B (unknown origin)
T6 sequence (P27338 whole entry): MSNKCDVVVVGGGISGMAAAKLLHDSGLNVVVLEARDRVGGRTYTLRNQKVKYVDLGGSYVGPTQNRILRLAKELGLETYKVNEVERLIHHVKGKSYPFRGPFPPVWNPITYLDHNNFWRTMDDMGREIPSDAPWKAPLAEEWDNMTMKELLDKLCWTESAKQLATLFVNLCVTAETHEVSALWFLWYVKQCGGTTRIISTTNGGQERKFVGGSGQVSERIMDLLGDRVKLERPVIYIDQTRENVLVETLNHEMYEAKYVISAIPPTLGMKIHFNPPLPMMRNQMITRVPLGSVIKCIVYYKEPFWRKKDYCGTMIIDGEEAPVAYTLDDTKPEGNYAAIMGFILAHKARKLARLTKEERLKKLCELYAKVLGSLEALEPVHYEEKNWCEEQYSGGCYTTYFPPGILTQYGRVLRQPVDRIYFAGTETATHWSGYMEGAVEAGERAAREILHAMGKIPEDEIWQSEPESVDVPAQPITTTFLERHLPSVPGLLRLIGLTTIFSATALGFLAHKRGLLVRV

[10] = target: T2, Acetylcholinesterase; assay: Inhibition of recombinant human AChE
[11] = target: T7, Acetylcholinesterase (Electrophorus electricus, UniProt O42275); assay: Inhibition of electric eel AChE
[12] = target: T2, Acetylcholinesterase; assay: Inhibition of AChE (unknown origin)
[13] = target: T3, Cholinesterases; ACHE & BCHE (Homo sapiens); assay: Selectivity index, ratio of IC50 for AChE (unknown origin) to BChE (unknown origin); assay type: protein assay
[14] = target: Cholinesterase (Equus caballus, UniProt P81908); assay: Inhibition of equine BChE
[15] = Selectivity index, ratio of IC50 for electric eel AChE to IC50 for equine BChE
[16] = target: T4, Acetylcholinesterase; assay: Inhibition of rat AChE
[17] = target: T3, Cholinesterases; ACHE & BCHE (Homo sapiens); assay: Selectivity index, ratio of IC50 for human AChE to IC50 for human BChE; assay type: protein assay
[18] = target: T1, Cholinesterase; assay: Inhibition of human serum BChE using butyrylthiocholine as substrate by Ellman's method
[19] = target: T2, Acetylcholinesterase
Description: Inhibition of human erythrocyte AChE using acetylthiocholine iodide as substrate preincubated for 30 mins followed by substrate addition measured after 5 mins by Ellman's method

[20] = target: T7, Acetylcholinesterase; assay: Inhibition of electric eel AChE using acetylthiocholine iodide as substrate incubated for 30 mins by Ellman's method
[21] = target: T7, Acetylcholinesterase; assay: Binding affinity to electric eel AChE assessed as inhibition constant using acetylthiocholine iodide as substrate incubated for 30 mins by Ellman's method

T7 sequence (O42275 whole entry): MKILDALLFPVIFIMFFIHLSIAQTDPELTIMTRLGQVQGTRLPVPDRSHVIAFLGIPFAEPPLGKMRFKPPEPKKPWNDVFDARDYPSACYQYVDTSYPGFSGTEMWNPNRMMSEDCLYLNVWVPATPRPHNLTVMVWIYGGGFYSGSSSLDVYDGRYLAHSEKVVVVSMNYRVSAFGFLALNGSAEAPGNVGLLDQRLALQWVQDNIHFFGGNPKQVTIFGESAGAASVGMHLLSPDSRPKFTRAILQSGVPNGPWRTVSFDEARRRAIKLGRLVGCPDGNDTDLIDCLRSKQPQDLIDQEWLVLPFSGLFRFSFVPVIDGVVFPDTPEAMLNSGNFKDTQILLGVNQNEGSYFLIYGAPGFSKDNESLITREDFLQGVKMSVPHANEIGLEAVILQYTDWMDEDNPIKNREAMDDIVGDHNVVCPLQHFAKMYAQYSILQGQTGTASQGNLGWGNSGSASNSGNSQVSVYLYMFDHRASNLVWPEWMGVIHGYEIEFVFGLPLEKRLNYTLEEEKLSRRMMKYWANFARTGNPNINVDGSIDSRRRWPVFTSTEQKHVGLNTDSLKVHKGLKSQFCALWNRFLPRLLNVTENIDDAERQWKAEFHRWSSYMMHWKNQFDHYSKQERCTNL
T3 sequence (P06276 whole entry, looked up): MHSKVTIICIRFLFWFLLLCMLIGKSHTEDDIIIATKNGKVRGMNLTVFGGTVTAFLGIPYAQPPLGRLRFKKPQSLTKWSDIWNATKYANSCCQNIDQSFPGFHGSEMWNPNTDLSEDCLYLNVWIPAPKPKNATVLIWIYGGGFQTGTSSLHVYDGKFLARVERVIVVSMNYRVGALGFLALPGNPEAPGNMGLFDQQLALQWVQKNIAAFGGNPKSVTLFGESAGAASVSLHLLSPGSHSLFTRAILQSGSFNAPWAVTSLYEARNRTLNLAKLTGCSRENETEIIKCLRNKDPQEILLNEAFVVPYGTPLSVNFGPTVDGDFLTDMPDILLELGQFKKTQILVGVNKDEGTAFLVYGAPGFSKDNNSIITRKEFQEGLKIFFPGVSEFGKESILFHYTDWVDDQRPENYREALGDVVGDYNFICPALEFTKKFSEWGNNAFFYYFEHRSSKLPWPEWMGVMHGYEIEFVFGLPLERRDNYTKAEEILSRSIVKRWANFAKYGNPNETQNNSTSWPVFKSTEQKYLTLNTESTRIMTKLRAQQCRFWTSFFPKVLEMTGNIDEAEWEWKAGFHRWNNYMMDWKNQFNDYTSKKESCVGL
T3 sequence (P22303 whole entry, looked up): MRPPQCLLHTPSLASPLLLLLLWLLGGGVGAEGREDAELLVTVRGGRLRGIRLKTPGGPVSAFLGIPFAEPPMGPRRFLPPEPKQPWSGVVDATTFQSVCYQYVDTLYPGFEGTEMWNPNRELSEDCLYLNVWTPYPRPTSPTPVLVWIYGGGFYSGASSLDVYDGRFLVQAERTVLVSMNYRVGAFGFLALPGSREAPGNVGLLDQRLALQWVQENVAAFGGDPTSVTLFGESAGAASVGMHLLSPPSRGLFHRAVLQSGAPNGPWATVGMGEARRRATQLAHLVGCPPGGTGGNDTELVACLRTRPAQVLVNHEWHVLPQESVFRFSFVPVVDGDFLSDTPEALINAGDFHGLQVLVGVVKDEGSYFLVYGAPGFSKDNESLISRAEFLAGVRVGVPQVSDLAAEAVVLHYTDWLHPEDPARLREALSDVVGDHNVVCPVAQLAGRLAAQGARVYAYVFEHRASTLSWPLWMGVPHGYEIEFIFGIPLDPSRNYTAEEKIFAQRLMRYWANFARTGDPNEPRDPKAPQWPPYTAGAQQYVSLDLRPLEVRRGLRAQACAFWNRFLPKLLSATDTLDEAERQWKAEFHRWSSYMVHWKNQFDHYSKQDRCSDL
T1 sequence (P06276 whole entry): as the sequence (P06276 whole entry, looked up) above
Sequence of Cholinesterase (Equus caballus, UniProt P81908) (P81908 whole entry): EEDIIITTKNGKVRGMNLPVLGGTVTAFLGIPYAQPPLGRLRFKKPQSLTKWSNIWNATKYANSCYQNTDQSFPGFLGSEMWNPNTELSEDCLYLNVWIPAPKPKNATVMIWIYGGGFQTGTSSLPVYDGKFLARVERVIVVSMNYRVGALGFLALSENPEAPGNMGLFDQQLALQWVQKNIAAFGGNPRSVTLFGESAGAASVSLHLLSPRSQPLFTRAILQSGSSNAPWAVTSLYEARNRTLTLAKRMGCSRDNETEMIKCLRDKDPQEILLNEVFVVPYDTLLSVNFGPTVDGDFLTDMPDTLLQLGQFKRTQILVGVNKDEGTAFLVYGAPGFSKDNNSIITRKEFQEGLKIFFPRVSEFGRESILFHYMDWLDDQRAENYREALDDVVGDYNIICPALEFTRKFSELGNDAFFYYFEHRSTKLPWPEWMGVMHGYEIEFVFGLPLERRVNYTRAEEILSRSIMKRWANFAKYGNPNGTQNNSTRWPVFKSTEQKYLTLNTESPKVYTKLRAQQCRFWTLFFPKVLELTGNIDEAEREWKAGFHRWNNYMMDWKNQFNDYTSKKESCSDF
T2 sequence (P22303 whole entry): as the sequence (P22303 whole entry, looked up) above

With `CNC(=O)Oc1cccc(CN(C)CCCCCCOc2ccc3c(c2)O/C(=C\c2cc(OC)c(OC)c(OC)c2)C3=O)c1` the IC50 [1] was 0.136 µM, the IC50 [2] was 0.00052 µM and the Ratio IC50 [3] was 261.
In the case of `CN1CCN(C(=O)Oc2ccc(/C=C/c3cc(OC(=O)N4CCN(C)CC4)cc(OC(=O)N4CCN(C)CC4)c3)cc2)CC1`, the IC50 [4] is reported as 6.97 µM.
Work on `CC(C)c1ccc(NC(=O)Oc2ccc3c(c2)[C@]2(C)CCO[C@@H]2O3)cc1` yielded an IC50 [5] of 0.027 µM.
`CCN1/C(=C/C(C)=O)Sc2ccc(OC(=O)OCCOCCNC(=O)c3cc4c(OC(=O)N(C)C)cccc4[n+](C)c3)cc21` showed an IC50 [6] of 0.0814 µM and an IC50 [7] of 0.482 µM.
With `C#CCN[C@@H]1CCc2ccc(OC(=O)N(C)CC)cc21` the IC50 [7] was 4.1 µM, the IC50 [8] was 0.77 µM and the IC50 [9] was 2 µM. For the same molecule, the IC50 [10] was 1000 µM.
`Cc1ccccc1NC(=O)Oc1ccc2c(c1)[C@]1(C)CCO[C@@H]1O2` gave an IC50 [5] of over 30 µM.
For `CCCCCCCCNC(=O)Oc1cc(OC(=O)NCCCCCCCC)cc(OC(=O)NCCCCCCCC)c1`, the IC50 [11] was 0.015 µM.
`CCNC(=O)Oc1ccc2c(c1)[C@]1(C)CCO[C@@H]1O2` gave an IC50 [12] of 0.036 µM, an IC50 [5] of 0.006 µM and a Ratio IC50 [13] of 60.
For `CNC(=O)Oc1cccc(CN(C)CCCCCCCOc2cccc(-c3cc(=O)c4ccccc4o3)c2)c1`, the Ratio IC50 [3] was 122.
In the case of `COc1ccc2[nH]cc(CCC(=O)CCCCCCNC(=O)Oc3ccc4c(c3)CN3CCc5ccccc5C3N4C)c2c1` (configuration not stated), the IC50 [5] is reported as 0.102 µM.
Work on `CNC(=O)Oc1cccc(CN(C)CCCCCCOc2ccc(C(=O)/C=C/c3cc(OC)c(OC)c(OC)c3)c(O)c2)c1` yielded an IC50 [1] of 0.0302 µM, an IC50 [2] of 0.00133 µM and a Ratio IC50 [3] of 23.
In the case of `CCCCCCCNC(=O)Oc1ccc(F)c(-c2coc3c4c(ccc3c2=O)OC(C)(C)C=C4)c1`, the IC50 [11] is reported as 77.8 µM, the IC50 [14] is reported as 0.093 µM and the Ratio IC50 [15] is reported as 836.
Molecule `CN1CCN(C(=O)Oc2ccc(-c3coc4cc(OC(=O)N5CCN(C)CC5)ccc4c3=O)cc2)CC1` has an IC50 [16] of 1.2 µM.
`CN1CC[C@@]2(C)c3cc(OC(=O)Nc4ccccc4)ccc3N(C)[C@@H]12` showed a Ratio IC50 [13] of 65.
Molecule `COC(=O)c1cc2c(OC(=O)N(C)C)cccc2[n+]([11CH3])c1` has an IC50 [6] of 0.02 µM.
`O=C(Oc1cc(O)c2c(=O)cc(-c3ccc(O)cc3)oc2c1)N1CCCCC1` gave an IC50 [6] of 62.5 µM, an IC50 [7] of 0.094 µM and a Ratio IC50 [17] of 665.
`O=C1CCOc2cc(OCCCCCSC(=S)N3CCCCC3)ccc21` gave an IC50 [10] of 0.1 µM.
With `CN1c2ccc(OC(=O)NCC3CCCCC3)cc2[C@]2(C)CCN(CCc3ccccc3)[C@H]12` the IC50 [12] was 2.5 µM and the Ratio IC50 [13] was 1390.
For `CCC(C)(C)NCC(O)c1cc(OC(=O)N(C)C)cc(OC(=O)N(C)C)c1` (configuration not stated), the Ratio IC50 [15] was over 796.
`CCCCCCCNC(=O)Oc1ccc2[nH]cc(CCNC(=O)c3ccccc3Nc3ccccc3)c2c1` gave an IC50 [11] of over 100 µM, an IC50 [14] of 0.007 µM and a Ratio IC50 [15] of over 10000.
With `CNC(=O)Oc1cccc(CN(C)CCCCCCCOc2ccc3c(=O)c4ccccc4oc3c2)c1` the IC50 [18] was 0.00032 µM and the IC50 [19] was 0.0516 µM.
Molecule `CN[C@@H](CCOc1ccc([N+](=O)[O-])cc1)c1ccc(OC(=O)N(C)C)cc1` has an IC50 [16] of 0.101 µM.
Molecule `CCC(C)(C)NCC(O)c1cc(O)cc(OC(=O)N(C)C)c1` (configuration not stated) has an IC50 [6] of 20 µM, an IC50 [7] of 0.05 µM and a Ratio IC50 [17] of 400.
In the case of `O=C(Nc1cccc([N+](=O)[O-])c1)OCCNc1c2ccccc2nc2ccccc12`, the IC50 [11] is reported as 0.0221 µM and the IC50 [14] is reported as 0.017 µM.
Work on `COC(=O)CCC/C=C\C/C=C\C/C=C\CCOC(=O)Nc1cccc(Cl)c1` yielded an IC50 [20] of 16.8 µM and a Ki [21] of 0.93 µM.
